Patent publication US4277474A, “Treatment of allergic symptoms with propanone derivatives” (Nippon Zoki Pharmaceutical Co., Ltd., priority 1978, dated 1981)
Where a name gives a salt, the structure may show the parent alone. Read-outs that look alike come from different tables or passages of the source.

Tests used:
[1] = system: Peritoneal cavity cells; assay: Inhibitory effect on histamine release from sensitized peritoneal cavity cells; format: cell-based, rat (Wistar-strain); design: Released histamine, fluorescence intensity / Residual histamine, fluorescence intensity / Total histamine, fluorescence intensity: unit not given here; settings: for Net release rate: release not caused by antigen-antibody reaction deducted; for inhibition at 10 µM / inhibition at 50 µM / inhibition at 100 µM / inhibition at 200 µM: Rattus norvegicus; for inhibition at 50 µM / inhibition at 100 µM: read-out: Inhibitory effect on histamine release; for inhibition at 200 µM: 0.2 mM
Description: The inhibitory effect on histamine release of the compounds according to the present invention was investigated as follows. […] These cells were suspended in a phosphoric acid buffer solution (containing 0.1% of gelatin) and each 0.5 ml portion of this suspension was taken in a polyethylene tube. 1 ml each of solutions of various concentrations of test compound and 0.5 ml of 200 μg/ml of ovalbumin solution were added therein. They were incubated for 20 minutes at 37° C. to measure the histamine release rate. The amount of histamine was measured by a modified Shore method using fluorescence.

[2] = system: SRS-A; assay: Anti-SRS-A effect on guinea pig's ileum (Magnus method)
Description: The anti-SRS-A effect of the compounds according to the present invention on guinea pig's ileum was measured by Magnus method. […] One minute thereafter, the ileum contraction inhibiting rate (%) was measured with use of 1 ml of 80% ethanol solution of SRS-A (150 mg/ml).

[3] = Acute toxicity in mice (LD50, Litchfield-Wilcoxon); settings: mouse, in vivo, ICR male mice
Description: Acute toxicity tests were carried out by intraperitoneal or peroral administration of the compound according to the present invention to groups of 10 ICR-strain male mice (weighing 20 g on the average), and each LD50 value was determined by Litchfield-Wilcoxon Method.

[4] = 0.05 mM, average ± S.E. of 3 or 4 experiments

| SMILES | inhibition at 50 µM [1, 4] | inhibition at 100 µM ([1]; 0.1 mM) | ileum contraction inhibiting rate ([2]; 10^-4 g/ml) | ileum contraction inhibiting rate ([2]; 10^-5 g/ml) | ileum contraction inhibiting rate ([2]; 10^-6 g/ml) | other results |
| --- | --- | --- | --- | --- | --- | --- |
| O=C(O)c1cc(=O)c2c(OCC(O)COc3cccc4oc(C(=O)O)cc(=O)c34)cccc2o1 [DSCG, disodium chromoglicate, reference compound] | 29 ± 6.1% | 70% | – | – | – | Histamine release rate ([1]; 0.01 mM): 36.8%; Net release rate ([1]; 0.01 mM): 22.9%; inhibition at 10 µM ([1]; 0.01 mM): 30% |
| Cc1ccc(C(=O)C(C)CN2CCN(CC(C)C)CC2)cc1.Cl.Cl (stereo not shown) [Example 1, 2,4'-dimethyl-3-(4-isobutylpiperazino)propiophenone dihydrochloride] | – | – | 64.7 ± 7.51% | 6.7 ± 3.33% | 0 ± 0% | – |
| CC(CN(C)C)C(=O)c1ccc2ccccc2c1 (stereo not drawn) [Example 3, 2-methyl-3-dimethylamino-β-propionaphthone hydrochloride] | – | – | 91.3 ± 3.84% | 47.0 ± 9.50% | 1.3 ± 0.88% | – |
| CC(CN1CCOCC1)C(=O)c1ccc2ccccc2c1 (stereo not drawn) [Example 4, 2-methyl-3-morpholino-β-propionaphthone hydrochloride] | – | – | 96.7 ± 3.33% | 36.3 ± 14.19% | 13.0 ± 12.50% | LD50 ([3]; ip, intraperitoneal): 190 mg/kg; LD50 ([3]; po, peroral): 540 mg/kg; Histamine release rate ([1]; 0.01 mM): 44.2%; Released histamine, fluorescence intensity ([1]; 0.01 mM): 212; Residual histamine, fluorescence intensity ([1]; 0.01 mM): 268; Total histamine, fluorescence intensity ([1]; 0.01 mM): 480; Net release rate ([1]; 0.01 mM): 30.3%; inhibition at 10 µM ([1]; 0.01 mM): 7.4% |
| CC(CN1CCCC1)C(=O)c1ccc2ccccc2c1 (stereo not drawn) [Example 6, 2-methyl-3-pyrrolidino-β-propionaphthone hydrochloride] | – | 48% | 100.0 ± 0% | 63.0 ± 6.66% | 0.3 ± 0.33% | – |
| COc1ccc(C(=O)C(C)CN2CCCCC2)cc1OC.Cl (stereo not shown) [Example 7, 3',4'-dimethoxy-2-methyl-3-piperidinopropiophenone hydrochloride] | – | – | 85.7 ± 0.67% | 8.3 ± 2.85% | 1.0 ± 1.00% | – |
| CC(CN1CCCCC1)C(=O)c1ccc2c(c1)CCCC2 (stereo not shown) [Example 9, 2-methyl-3-piperidino-5',6',7',8'-tetrahydro-2'-propionaphthone hydrochloride] | – | 33.7% | – | – | – | – |
| CC1CCCN(CC(C)C(=O)c2ccc3ccccc3c2)C1 (stereo not drawn) [Example 10, 2-methyl-3-(3-methylpiperidino)-β-propionaphthone hydrochloride] | 18 ± 5.4% | 49.9% | – | – | – | – |
| CCN(CC)CC(C)C(=O)c1ccc(C)cc1.Cl (stereo not shown) [Example 11, 2,4'-dimethyl-3-diethylaminopropiophenone hydrochloride] | – | – | 68.0 ± 13.05% | 0.3 ± 0.33% | 3.0 ± 3.00% | – |
| Cc1ccc(C(=O)C(C)CN2CCOCC2)cc1.Cl (stereo not shown) [Example 12, 2,4'-dimethyl-3-morpholinopropiophenone hydrochloride] | – | – | 69.7 ± 12.13% | 20.7 ± 5.61% | 8.3 ± 6.89% | – |
| Cc1ccc(C(=O)C(C)CN2CCCC2)cc1.Cl (stereo not shown) [Example 13, 2,4'-dimethyl-3-pyrrolidinopropiophenone hydrochloride] | – | – | 80.7 ± 6.98% | 2.7 ± 2.67% | 1.3 ± 1.33% | – |
| Cc1ccc(C(=O)C(C)CN2CCN(C)CC2)cc1.Cl.Cl (stereo not shown) [Example 14, 2,4'-dimethyl-3-(4-methylpiperazino)propiophenone dihydrochloride] | – | – | 58.0 ± 4.36% | 10.3 ± 7.88% | 10.3 ± 7.98% | – |
| CCN1CCN(CC(C)C(=O)c2ccc(C)cc2)CC1.Cl.Cl (stereo not shown) [Example 15, 2,4'-dimethyl-3-(4-ethylpiperazino)propiophenone dihydrochloride] | – | – | 69.7 ± 3.71% | 20.7 ± 6.12% | 0.3 ± 0.33% | – |
| Cc1ccc(C(=O)C(C)CN2CCN(Cc3ccccc3)CC2)cc1 (stereo not shown) [Example 16, 2,4'-dimethyl-3-(4-benzylpiperazino)propiophenone dihydrochloride] | – | – | – | – | – | inhibition at 200 µM [1]: 72.4% |
| COc1cc(C(=O)C(C)CN2CCCCC2)ccc1O (stereo not shown) [Example 18, 4'-hydroxy-3'-methoxy-2-methyl-3-piperidinopropiophenone hydrochloride] | – | – | – | – | – | inhibition at 200 µM [1]: 83.7% |
| CC(CN1CCCCC1)C(=O)c1cccc2ccccc12 (stereo not drawn) [Example 19, 2-methyl-3-piperidino-α-propionaphthone hydrochloride] | – | – | – | – | – | inhibition at 200 µM [1]: 100% |
| CCCCCCc1ccc(C(=O)C(C)CN2CCCCC2)cc1 (stereo not shown) [Example 22, 4'-hexyl-2-methyl-3-piperidinopropiophenone hydrochloride] | 82 ± 1.7% | 87.2% | – | – | – | – |
| CC1CCN(CC(C)C(=O)c2ccc3ccccc3c2)CC1 (stereo not drawn) [Example 23, 2-methyl-3-(4-methylpiperidino)-β-propionaphthone hydrochloride] | 21.4 ± 2.4% | 65.8% | – | – | – | – |

| SMILES | inhibition at 50 µM [1, 4] | inhibition at 100 µM ([1]; 0.1 mM) | ileum contraction inhibiting rate ([2]; 10^-4 g/ml) | ileum contraction inhibiting rate ([2]; 10^-5 g/ml) | ileum contraction inhibiting rate ([2]; 10^-6 g/ml) | other results |
| --- | --- | --- | --- | --- | --- | --- |
| Cc1ccc(C(=O)C(C)CN(C)C)cc1.Cl (stereo not shown) [Example 24, 2,4'-dimethyl-3-dimethylaminopropiophenone hydrochloride] | – | – | 57.3 ± 5.17% | 7.7 ± 3.67% | 4.3 ± 2.40% | – |
| COc1ccc(C(=O)C(C)CN2CCCCC2)cc1.Cl (stereo not shown) [Example 25, 4'-methoxy-2-methyl-3-piperidinopropiophenone hydrochloride] | – | – | 80.3 ± 7.22% | 15.0 ± 14.50% | 6.7 ± 6.67% | – |
| CCOc1ccc(C(=O)C(C)CN2CCCCC2)cc1.Cl (stereo not shown) [Example 26, 4'-ethoxy-2-methyl-3-piperidinopropiophenone hydrochloride] | – | – | 86.7 ± 3.84% | 12.3 ± 6.69% | 6.7 ± 5.24% | – |
| Cc1ccc(C(=O)C(CN2CCCCC2)c2ccccc2)cc1 (stereo not shown) [Example 27, 4'-methyl-2-phenyl-3-piperidinopropiophenone hydrochloride] | – | – | – | – | – | inhibition at 200 µM [1]: 78.5% |
| CC(CN1CCCCC1C)C(=O)c1ccc2ccccc2c1 (stereo not drawn) [Example 28, 2-methyl-3-(2-methylpiperidino)-β-propionaphthone hydrochloride] | 18.5 ± 6.5% | 40.7% | – | – | – | – |
| CC(CN1CCC(Cc2ccccc2)CC1)C(=O)c1ccc2ccccc2c1 (stereo not drawn) [Example 29, 2-methyl-3-(4-benzylpiperidino)-β-propionaphthone hydrochloride] | 61 ± 3.6% | 98.7% | – | – | – | – |
| Cc1ccc(C(=O)CCN2CCCCC2)cc1C [Example 30, 3',4'-dimethyl-3-piperidinopropiophenone hydrochloride] | 19.4 ± 7.8% | 50.3% | – | – | – | – |
| O=C(CCN1CCCCC1)c1ccc2ccccc2c1 [Example 31, 3-piperidino-β-propionaphthone hydrochloride] | – | – | – | – | – | inhibition at 50 µM [1]: 53.4 ± 9.1%; inhibition at 100 µM [1]: 89.6% |
| CCC(CN1CCCCC1)C(=O)c1ccc2ccccc2c1 (stereo not drawn) [Example 32, 2-ethyl-3-piperidino-β-propionaphthone hydrochloride] | 27.2 ± 8.1% | 42% | – | – | – | – |
| CC(CN1CCCCC1)C(=O)c1ccc2c(c1)CCC2 (stereo not shown) [Example 33, 1-(5-indanyl)-2-methyl-3-piperidinopropanone hydrochloride] | 14.4 ± 2.6% | – | – | – | – | – |
| CCc1ccc(C(=O)C(C)CN2CCCCC2)cc1CC (stereo not shown) [Example 34, 3',4'-diethyl-2-methyl-3-piperidinopropiophenone hydrochloride] | 29.1 ± 7.5% | – | – | – | – | – |
| CCCc1ccc(C(=O)C(C)CN2CCCCC2)cc1 (stereo not shown) [Example 36, 4'-n-propyl-2-methyl-3-piperidinopropiophenone hydrochloride] | 23.6 ± 7.7% | – | – | – | – | – |
| COc1ccc2cc(C(=O)CCN3CCCCC3)ccc2c1 [Example 39, 6'-methoxy-3-piperidino-2'-propionaphthone hydrochloride] | – | 85% | – | – | – | – |
| COc1ccc2cc(C(=O)C(C)CN3CCCCC3)ccc2c1 (stereo not shown) [Example 40, 6'-methoxy-2-methyl-3-piperidino-2'-propionaphthone hydrochloride] | – | 84% | – | – | – | – |
| COc1ccc(C(=O)C(C)CN2CCCCC2)cc1Cl (stereo not shown) [Example 49, 3'-chloro-4'-methoxy-2-methyl-3-piperidinopropiophenone hydrochloride] | – | 38% | – | – | – | – |
| CC(CN1CCCCC1)C(=O)c1ccc(Cl)c(Cl)c1 (stereo not shown) [Example 50, 3',4'-dichloro-2-methyl-3-piperidinopropiophenone hydrochloride] | – | 73% | – | – | – | – |
| Cc1ccc2cc(C(=O)C(C)CN3CCCCC3)ccc2c1 (stereo not shown) [Example 51, 2,6'-dimethyl-3-piperidino-2'-propionaphthone hydrochloride] | – | 37% | – | – | – | – |
